Experimental findings from patent publication US4207320A, “Amino-substituted imidazo[1,2-a:3,4-a']diquinolin-15-ium salts compositions and method of use” (Warner-Lambert Company, priority 1978, dated 1980) are described below.

Experiment [1] has as its system C. guilliermondi. Description: Broth Tube Dilution Test, minimal inhibitory concentration. The experiment is classed as cell-based, Candida gulliermondi. Particulars: Candida, 28° C., at 72. The method, then: (§1) Minimal Inhibitory Concentration (MIC) The test compounds are serially diluted in pure dimethylformamide, giving a concentration of 4000, 800, 160 and 32 micrograms/milliliters(μg./ml.).A further dilution (typically a 2-fold or a 5-fold dilution) is made from each of the above serial dilutions into tubes containing 9.4 ml. BactoSabouraud Dextrose Broth, resulting in a set of broth tubes with specific final drug concentrations for which activity is to be determined. Each of the broth tubes is then inoculated with 0.5 ml. of a stock suspension of the same test organism. After inoculation, all of the tubes are incubated at 28° C. The tubes are read 48 hours to 7 days post inoculation, depending on the organism being tested. The lowest concentration of test compound at which growth of the organism is prevented in the broth tubes is taken as the minimal inhibitory concentration (MIC). The Broth+Serum Dilution Test is performed in the same manner as the Broth Tube Dilution Test except that the liquid medium consists of 50% BactoSabouraud Dextrose Broth and 50% normal calf serum from citrated blood.

The test system of experiment [2] is C. guilliermondi. In words: Broth Tube Dilution Test, minimal fungicidal concentration. As to conditions: Candida, 28° C., 24 hours later. The experiment is classed as cell-based, Candida gulliermondi. The method, then: as §1, with “The” for “Minimal Inhibitory Concentration (MIC) The”, “blood. […] The tubes are then read and the lowest concentration of test compound for which there is no growth of the organism in the broth tube is taken as the minimal fungicidal concentration (MFC).” for “blood.”

The subject of experiment [3] is C. tropicalis. Described as above. The experiment is classed as cell-based. As to conditions: Candida tropicalis, 28° C., 24 hours later. As to the method: as §1, with “The” for “Minimal Inhibitory Concentration (MIC) The”, “blood. Minimal Fungicidal Concentrations (MFC) For a determination of fungicidal activity, the broth tubes described above are incubated at 28° C. for 48 hours and then serially diluted 1:100 into Bacto-Sabouraud Dextrose Broth and incubated again for 48 hours. The tubes are then read and the lowest concentration of test compound for which there is no growth of the organism in the broth tube is taken as the minimal fungicidal concentration (MFC).” for “blood.”

In experiment [4] the test system is C. albicans. Described as above. The experiment is classed as cell-based. As to conditions: Candida albicans, 28° C., 24 hours later. As to the method: as §1, with “The” for “Minimal Inhibitory Concentration (MIC) The”, “blood. Minimal Fungicidal Concentrations (MFC) For a determination of fungicidal activity, the broth tubes described above are incubated at 28° C. for 48 hours and then serially diluted 1:100 into Bacto-Sabouraud Dextrose Broth and incubated again for 48 hours. The tubes are then read and the lowest concentration of test compound for which there is no growth of the organism in the broth tube is taken as the minimal fungicidal concentration (MFC).” for “blood.”

The subject of experiment [5] is C. stellatoidea. Described as above. The experiment is classed as cell-based. Particulars: Candida albicans, 28° C., 24 hours later. As to the method:
as §1, with “The” for “Minimal Inhibitory Concentration (MIC) The”, “blood. Minimal Fungicidal Concentrations (MFC) For a determination of fungicidal activity, the broth tubes described above are incubated at 28° C. for 48 hours and then serially diluted 1:100 into Bacto-Sabouraud Dextrose Broth and incubated again for 48 hours. The tubes are then read and the lowest concentration of test compound for which there is no growth of the organism in the broth tube is taken as the minimal fungicidal concentration (MFC).” for “blood.”

In experiment [6] the test system is Geotrichum candidum. The description is as above. The experiment is classed as cell-based. Particulars: 28° C., 24 hours later. As to the method:
as §1, with “The” for “Minimal Inhibitory Concentration (MIC) The”, “blood. Minimal Fungicidal Concentrations (MFC) For a determination of fungicidal activity, the broth tubes described above are incubated at 28° C. for 48 hours and then serially diluted 1:100 into Bacto-Sabouraud Dextrose Broth and incubated again for 48 hours. The tubes are then read and the lowest concentration of test compound for which there is no growth of the organism in the broth tube is taken as the minimal fungicidal concentration (MFC).” for “blood.”

Experiment [7] concerns C. krusei. Described as above. The experiment is classed as cell-based, Candida krusei. Particulars: Pichia kudriavzevii, 28° C., 24 hours later. The method, then:
as §1, with “The” for “Minimal Inhibitory Concentration (MIC) The”, “blood. […] The tubes are then read and the lowest concentration of test compound for which there is no growth of the organism in the broth tube is taken as the minimal fungicidal concentration (MFC).” for “blood.”

For experiment [8], the system named is C. parapsilosis. The experiment is described as above. The experiment is classed as cell-based, Candida parapsilosis. Particulars: Lodderomyces parapsilosis, 28° C., 24 hours later. As to the method:
as §1, with “The” for “Minimal Inhibitory Concentration (MIC) The”, “blood. […] The tubes are then read and the lowest concentration of test compound for which there is no growth of the organism in the broth tube is taken as the minimal fungicidal concentration (MFC).” for “blood.”

Experiment [9] has as its system C. tropicalis. In words: Broth Tube Dilution Test, minimal inhibitory concentration. The experiment is classed as cell-based. As to conditions: Candida tropicalis, 28° C., at 72. The method, then: as §1
Experiment [10] relates to C. albicans. Described as above. The experiment is classed as cell-based. As to conditions: Candida albicans, 28° C., at 72. The method, then: as §1
For experiment [11], the system named is C. stellatoidea. The description is as above. The experiment is classed as cell-based. Particulars: Candida albicans, 28° C., at 72. The method, then:
as §1

For experiment [12], the system named is Geotrichum candidum. The experiment is described as above. The experiment is classed as cell-based. As to conditions: 28° C., at 72. As to the method:
as §1

The subject of experiment [13] is C. krusei. Described as above. The experiment is classed as cell-based, Candida krusei. Particulars: Pichia kudriavzevii, 28° C., at 72. As to the method:
as §1

Experiment [14] has as its system C. parapsilosis. Described as above. The experiment is classed as cell-based, Candida parapsilosis. Particulars: Lodderomyces parapsilosis, 28° C., at 72. As to the method:
as §1

Each structure is given as a SMILES string.

A word on the MIC: it is the lowest concentration that inhibits growth of the organism. What is called MFC is the lowest tested concentration that kills the fungus rather than only halting it. Read a low MFC as more potent killing. For `CC(C)(C)c1ccc2c(ccc3c[n+]4c5ccc(N6CCCC6)cc5ccc4n32)c1.[Cl-]` [Example 7, 10-(1,1-Dimethylethyl)-3-(1-pyrrolidinyl)imidazo[1,2-a:3,4-a']diquinolin-15-ium Chloride], the minimum inhibitory concentration (MIC) was 2.5 µg/mL in the experiment on C. guilliermondi [1]; more than 10 µg/mL in the experiment on C. tropicalis [9]; 10 µg/mL in the experiment on C. albicans [10]; 2.61 µg/mL in the experiment on C. stellatoidea [11]; 10 µg/mL in the experiment on Geotrichum candidum [12]; 10 µg/mL against C. krusei [13]. For the same compound, in the experiment with C. parapsilosis [14], 10 µg/mL was the least that counted as inhibitory (MIC). The MFC against C. guilliermondi [2] is 2.5 µg/mL; against C. tropicalis [3], more than 10 µg/mL; in the experiment on C. albicans [4], 10 µg/mL; in the experiment with C. stellatoidea [5], 5 µg/mL; against Geotrichum candidum [6], more than 10 µg/mL; with C. krusei [7], 10 µg/mL. This compound showed an MFC against C. parapsilosis [8] of more than 10 µg/mL.
Turning to `CCc1ccc2c(ccc3c[n+]4c5ccc(N6CCCC6)cc5ccc4n32)c1.[Cl-]` [Example 26, 10-Ethyl-3-(1-pyrrolidinyl)imidazo[1,2-a: 3,4-a']diquinolin-15-ium chloride], the MIC came out at 10 µg/mL in the experiment on C. guilliermondi [1]; 10 µg/mL in the experiment with C. tropicalis [9]; 2.5 µg/mL against C. albicans [10]; 1.25 µg/mL with C. stellatoidea [11]; 5 µg/mL against Geotrichum candidum [12]; 2.5 µg/mL in the experiment with C. krusei [13]. 5 µg/mL was the least that counted as inhibitory in the experiment with C. parapsilosis [14] (MIC). Also, the MFC was more than 10 µg/mL in the experiment on C. guilliermondi [2]; more than 10 µg/mL with C. tropicalis [3]; 2.5 µg/mL in the experiment with C. albicans [4]; 5 µg/mL against C. stellatoidea [5]; more than 10 µg/mL in the experiment on Geotrichum candidum [6]; 2.5 µg/mL against C. krusei [7]. This compound registered an MFC in the experiment on C. parapsilosis [8] of more than 10 µg/mL.
